From patent US8476408B2, “Unacylated ghrelin and analogs as therapeutic agents for vascular remodeling in diabetic patients and treatment of cardiovascular disease” (Alize Pharma SAS, priority 2008, dated 2013)
Where no end group is shown, it is not given here.

How the values were obtained:
HIT-T15 β-cells = experiment: Survival of cytokine-treated HIT-T15 β-cells (MTT); format: cell-based; conditions: cytokines (IFN-γ/TNF-α/IL-1β), peptides 1 nM to 100 nM
Method: The survival effect of UAG (6-13) (SEQ ID NO: 6), UAG (8-13) (SEQ ID NO: 7), UAG (8-12) (SEQ ID NO: 8), UAG (8-11) (SEQ ID NO: 12), UAG (9-12) (SEQ ID NO: 9) and UAG (9-11) (SEQ ID NO: 10) was assessed in cytokine-treated HIT-T15 β-cells. […] The protective effects of peptides UAG (8-13) (SEQ ID NO: 7) and UAG (8-12) (SEQ ID NO: 8) were found similar to those of UAG (1-14) (SEQ ID NO: 2) and UAG (1-18) (SEQ ID NO: 3). A peptide made of the inverse sequence of UAG (1-14) (SEQ ID NO: 2) and named UAG (14-1) (SEQ ID NO: 11), was used as negative control for these experiments. […] These effects were however lower than those of UAG (6-13) (SEQ ID NO: 6).

CAC [1] = experiment: CAC mobilization assay in healthy subjects and diabetic patients; format: in vivo, human; conditions: diabetic patients compared to normal subjects, 6 hours treatment; FIG. 3B
Method: All the subjects underwent the following testing session: • UAG (3.0 μg/kg/h iv. as infusion for 12 h from 0 to 12 hours); • isotonic saline (infusion from 0 to 12 hours).
All tests were performed starting at 08.30-09.00 a.m. after overnight fasting, 30 minutes after an indwelling catheter had been placed into a forearm vein by slow infusion of isotonic saline. Blood samples were taken at 0 h, 6 h and 12 h.
Mobilization assay—CAC recovered from healthy subjects and diabetic patients, treated with UAG or saline for 6 h and 12 h, were evaluated. Total number of MNC was counted by 3 independent investigators. The percentage of CAC was calculated by comparing CAC obtained from diabetic patients and healthy donors, treated for 6 h and 12 h with UAG, AG or saline, to CAC recovered at time 0.

CAC [2] = experiment: Expansion (S phase) of CAC recovered from treated subjects, cultured with IL-3; format: in vivo, human; conditions: cells from treated diabetic patients cultured with IL-3; FIG. 3C
Method: Peripheral-blood mononuclear cells (PB-MNC) isolated by Fycoll Histopaque 1077 (Sigma) were resuspended in 20% FBS 199 Medium and plated on fibronectin-coated dishes (Biocoat, Becton Dickinson Labware) as described by Hill et al. (Ref. 19). Human UAG studies were performed on CAC recovered from normal donors and diabetic patients. The purity of sorted cells was assessed by FACS analysis (Ref. 20). For experiments, the isolated CAC were cultured under 5% CO2 at 37° C. for 4 days on 20 μg/ml fibronectin-coated dishes in EGM-2 medium containing 10% FBS, hydrocortisone, human Fibroblast Growth Factor, Vascular Endothelial Growth Factor, Insulin Growth Factor 1, ascorbic acid, human Epidermal Growth Factor, gentamicin and amphotericin-B (Cambrex, Walkersville, Md., USA) alone or in combination with 1 μM UAG and 1.2 mg/ml AGE. In selected experiments, isolated CAC were cultured in EBM-2 medium (Cambrex, Walkersville, Md., USA) supplemented with 10 ng/ml of IL-3. […]
(§1) Flow Cytometry—To analyze CAC cell-cycle progression, cells recovered from diabetic, healthy subjects, NOD/SCID, ob/ob and wt mice, were cultured in EBM-2 supplemented with IL-3 (10 ng/ml), FACS analysis was performed as previously described (Ref. 20). Cell surface molecules were evaluated by flow cytometry as previously described (Ref. 24). Frequency of marker-positive cells is expressed as mean±standard deviation (SD).

CAC [3] = experiment: Arterial specification of recovered human CAC (Q-RT-PCR of Ephrin B2, Notch1, Notch4, EphB4); format: in vivo; conditions: cells from treated patients cultured with IL-3; FIG. 3D
Method: (§2) RNA isolation and quantitative real-time PCR—CAC from diabetic patients, healthy subjects and mice treated with UAG or saline were cultured in EGM-2 medium. Human arterial and venous cells were used as a positive controls. mRNA quantification was performed by Q-RT-PCR, as previously described (Ref. 24). The relative expression of Ephrin B2, Notch1, Notch4 and EphB4 were calculated by using comparative threshold cycle methods. The human and murine primer sequences used were described (Refs. 25, 26).

CAC [4] = experiment: CAC mobilization assay in diabetic and control mice; format: in vivo; conditions: FIG. 4B
Method: Diabetic and control mice—Mice were divided in four groups. The plasma glucose and insulin determination for each group are reported. Sixteen 6 weeks old ob/ob mice (blood glucose, 600±45 mg/dL, insulin, 5.5±0.9 ng/ml); sixteen C56BL6/J wild type mice (blood glucose, 150±18.2 mg/dL, insulin, 1±0.05 ng/ml); ten 7 weeks old NOD/SCID mice (blood glucose, 164±12.9 mg/dL, insulin 1.2±0.12 ng/ml); ten 17 weeks old NOD/SCID mice (blood glucose, 536±36.3 mg/dL, insulin 4.85±0.74 ng/ml). Animal procedures conformed to the Guide for Care and Use of […] (National Institutes of Health publication no. 93-23, revised 1985).
Isolation and Culture of CAC from C57BU6J, C57BL/6J ob/ob mice and NOD/SCID mice—6 weeks old C57BL/6J (wt) and ob/ob mice, 7 and 17 weeks old NOD/SCID mice were purchased from Charles River Lab (Lecco, Italy). Animals were anesthetized by intraperitoneal injection with Avertin (100 mg/50ml ip). Blood samples were drawn from left ventricular, as described by Hoff (Ref. 27). Peripheral blood MNC were isolated by Ficoll density-gradient centrifugation. […]
Mobilization assay—Mice were treated for 12 hours with UAG or saline. CAC recovered and purified as above described, were put in culture and counted by three independent investigators. The technical ratio of CAC was calculated by comparing the numbers of CAC/μL of blood drawn from left ventricular.

CAC [5] = experiment: Expansion (S phase) of CAC recovered from treated mice; format: in vivo; conditions: CAC from UAG-challenged mice, IL-3; FIG. 4C
Method: as §1
(§3) Isolation and Culture of CAC from C57BU6J, C57BL/6J ob/ob mice and NOD/SCID mice—6 weeks old C57BL/6J (wt) and ob/ob mice, 7 and 17 weeks old NOD/SCID mice were purchased from Charles River Lab (Lecco, Italy). Animals were anesthetized by intraperitoneal injection with Avertin (100 mg/50ml ip). Blood samples were drawn from left ventricular, as described by Hoff (Ref. 27). Peripheral blood MNC were isolated by Ficoll density-gradient centrifugation. Recovered cells were washed twice Isolated cells were resuspended and were cultured on 20 μg/ml fibronectin-coated dishes in EGM-2 BulletKit Medium. In selected experiments, the isolated CAC were cultured in EBM-2 medium supplemented with 10 ng/ml of IL-3.

CAC [6] = experiment: Arterial commitment of CAC recovered from treated mice (Q-RT-PCR); format: in vivo; conditions: CAC from UAG-challenged mice cultured with IL-3; FIG. 4D
Method: as §2, §3

cardiomyocytes = conditions: Ref. 8; cited from earlier work
human arteries = conditions: Ref. 35; cited from earlier work

Question: With “1-NH2Gly-Ser-Ser-Phe-Leu-Ser-Pro-Glu-His-Gln-Arg-Val-Gln-Gln-Arg-Lys-Glu-Ser-Lys-Lys-Pro-Pro-Ala-Lys-Leu-Gln-Pro-Arg-28 (GSSFLSPEHQRVQQRKESKKPPAKLQPR; ends and bridges not checked; listed as Homo sapiens) [UAG]” as the substance, how does the “survival effect on cytokine-induced cell death” value (HIT-T15 β-cells) read?
Answer: The value was “comparable”.

Question: And the “number of recovered CAC” value (CAC [1])?
Answer: The value was “strong increase in the number of recovered cells”.

Question: What about the “cell expansion of recovered cells (S phase)” value (CAC [2]) of the same substance?
Answer: Its value is “underwent cell expansion”.

Question: And the “arterial specification (Ephrin B2, Notch1, Notch4 vs EphB4)” value (CAC [3])?
Answer: The value was “able to undergo arterial specification”.

Question: What about the “percentage of recovered cells” value (CAC [4]; diabetic NOD/SCID mice) of the same substance?
Answer: Its value is “increase the percentage of recovered cells”.

Question: What about the “number of recovered cells relative to untreated wild type mice” value (CAC [4]; ob/ob mice) of the same substance?
Answer: The value was “fully restores the number of CAC to normal physiological levels”.

Question: What about the “expansion of recovered CAC” value (CAC [5]) of the same substance?
Answer: Its value is “could be expanded”.

Question: And the “arterial commitment of recovered CAC” value (CAC [6])?
Answer: Its value is “acquire arterial commitment”.

Question: What about the experimentally-induced cell death (cardiomyocytes) of the same substance?
Answer: The experimentally-induced cell death was “inhibit experimentally-induced cell death”.

Question: And the vasodilator action (human arteries)?
Answer: The vasodilator action was “vasodilator actions”.
